Like-named read-outs stand apart in the source and are kept apart here. Marks after values point to notes of the source that are not given here. Each block holds one molecule with its values, some of them ahead of it.
Experiments:
[1] = Reactivity of tetrazines towards trans-cyclooct-4-ene-1-ol (axial isomer), competition experiment; settings: values marked *: 50:50 mixture of PBS and acetonitrile; reference tetrazine 5
[2] = as above; settings: reference tetrazine 5; acetonitrile/water
Method: A competition experiment was performed to determine the reactivity ratio of a specific tetrazine and 3-(5-acetamido-2-pyridyl)-6-(2-pyridyl)-1,2,4,5-tetrazine (5) (that was chosen as the reference tetrazine), in the inverse-electron demand Diels-Alder reaction with trans-cyclooct-4-ene-1-ol (“minor” isomer with OH in axial position, see: Whitham et al. J. Chem. Soc. (C), 1971, 883-896)).
To acetonitrile (0.100 mL) was added 5 μL of a solution of the specific tetrazine in DMSO (25 mM) and 5 μL of a solution of the reference tetrazine in DMSO (25 mM). This mixture was diluted with water (0.9 mL), and the absolute amounts of both tetrazines was determined by HPLC-MS/PDA analysis. Subsequently, a solution of trans-cyclooct-4-ene-1-ol (axial isomer) in DMSO (25 μL 2.5 mM) was slowly added, and the mixture was stirred for 5 min. Again, the absolute amounts of both tetrazines was determined by HPLC-MS/PDA analysis, and conversions for both tetrazines was calculated. From these conversions, the reactivity ratio (R=k2,TCO/k2,Ref) of both tetrazines was calculated using the mathematical procedure from Ingold and Shaw (J. Chem. Soc., 1927, 2918-2926).

[3] = Second-order rate constant of trans-cyclooctene derivatives in inverse-electron demand Diels-Alder reaction (UV-visible spectroscopy); settings: UV-visible spectroscopy in acetonitrile at 20° C.
Method: The kinetics of the inverse-electron demand Diels-Alder reaction of a trans-cyclooctene derivative with 3-(5-acetamido-2-pyridyl)-6-(2-pyridyl)-1,2,4,5-tetrazine (5), performed in acetonitrile at 20° C., was determined using UV-visible spectroscopy. A cuvette was filled with acetonitrile (3 mL) and equilibrated at 20° C. 3-(5-Acetamido-2-pyridyl)-6-(2-pyridyl)-1,2,4,5-tetrazine (5, 2.50×10^−7 mol) was added, followed by the trans-cyclooctene derivative (2.50×10^−7 mol). The decay of the absorption at λ=540 nm was monitored, and from this curve the second-order rate constant, k2, was determined assuming second order rate kinetics.

[4] = Activation of model prodrugs: reaction with 1,2,4,5-tetrazines and elimination of the model drug (HPLC-MS); settings: for release of 3,5-dimethylaniline: 20 hr
[5] = test system: A431 squamous carcinoma cells; test: Cell proliferation assay (MTT)
Method: The cells were plated in 96-well plates (Nunc) at a 2500 cells/well density 24 hr prior to the experiment. Doxorubicin (Dox) and the prodrug minor-38 (1 mM in DMSO) and the tetrazine 7 (10 mM in PBS) were serially diluted in pre-warmed culture medium immediately before the experiment and added to the wells (200 μl final volume per well). The prodrug was either added alone or in combination with 10 μM or 1.5 mol eq. tetrazine 7 (with respect to the prodrug). After 72 hr incubation at 37° C., cell proliferation was assessed by an MTT assay. Briefly, methylthiazolyldiphenyltetrazolium bromide (MTT) was dissolved in PBS at 5 mg/ml, filtered through 0.22 μm and 25 μl was added to each well. After 120 min incubation at 37° C., the medium was gently aspirated. The formed formazan crystals were dissolved in 100 μl DMSO and the absorbance was measured with a plate reader (BMG Labtech) at 560 nm.

[6] = Reactivity of trans-cyclooctene derivatives, competition experiment; settings: reference trans-cyclooct-4-ene-1-ol (axial isomer)
Method: A competition experiment was performed to determine the reactivity ratio of a specific trans-cyclooctene derivative and trans-cyclooct-4-ene-1-ol (axial isomer) (that was chosen as the reference trans-cyclooctene), in the inverse-electron demand Diels-Alder reaction with bis(2-pyridyl)-1,2,4,5-tetrazine (2).
This mixture was diluted with water (0.45 mL). Subsequently, a solution of bis(2-pyridyl)-1,2,4,5-tetrazine (2, 6.25×10^−8 mol) in a mixture of acetonitrile (0.05 mL) and water (0.45 mL) was slowly added while stirring vigorously. After addition, the mixture was stirred for an additional 5 min. The conversion of both trans-cyclooctene derivatives was determined by HPLC-MS/PDA analysis, and from these conversions, the reactivity ratio (R=k2,TCO/k2,Ref) of the specific trans-cyclooctene derivative was calculated using the mathematical procedure from Ingold and Shaw (J. Chem. Soc., 1927, 2918-2926).

[7] = Stability of trans-cyclooctene derivatives in PBS (HPLC-MS); type: physicochemical; settings: PBS buffer, 20° C., in the dark, estimation
Method: 10 μL of a solution of the specific trans-cyclooctene derivative in dioxane (25 mM) was diluted with PBS buffer (3 mL), and this solution was stored at 20° C. in the dark. The fate of the TCO compound was monitored by HPLC-MS analysis, and an estimation of the half-life time was made.

[8] = Method: (§1) 3-(2-Pyridyl)-6-methyl-1,2,4,5-tetrazine (7, 4.33×10^−6 g; 2.50×10^−8 mol) was dissolved in PBS buffer (1 mL) (c=25 μM). Next, minor-(E)-cyclooct-2-en-1-yl doxorubicin carbamate (38, the isomer with the carbamate in the axial position; 1.74×10^−5 g; 2.50×10^−8 mol) was added. The solution was stirred at 20° C. for 4 hr.
as §1, with “Next, major-(E)-cyclooct-2-en-1-yl” for “Next, minor-(E)-cyclooct-2-en-1-yl”, “the equatorial” for “the axial”, “for 16” for “for 4”
3,6-Bis(2-aminophenyl)-1,2,4,5-tetrazine (9, 2.64×10^−6 g; 1.00×10^−8 mol) was dissolved in acetonitrile (0.1 mL). This mixture was diluted with PBS buffer (0.9 mL). Next, minor-(E)-cyclooct-2-en-1-yl doxorubicin carbamate (38; 6.96×10^−6 g; 1.00×10^−8 mol) was added.

[9] = Hydrolytic stability tests of tetrazines (UV, decrease of absorption at 525 nm); type: physicochemical; settings: PBS buffer, 20° C.
Source text: This solution was filtered and, the decrease of the absorption band at 525 nm was monitored using UV spectroscopy.

[10] = with tetrazine 7, c=25 μM, PBS, 20° C., 16 hr

Structure (SMILES): Nc1ccc(-c2nnc(-c3ccc(N)cc3)nn2)cc1
Reactivity ratio (R = k2,TZ/k2,Ref) [1]: <0.01*

Structure (SMILES): O=C1CCCC(=O)N1c1ccc(-c2nnc(-c3ccccn3)nn2)nc1
Reactivity ratio (R = k2,TZ/k2,Ref) [2]: 1.6

Structure (SMILES): c1ccc(-c2nnc(-c3ccccc3)nn2)cc1
Reactivity ratio (R = k2,TZ/k2,Ref) [1]: <0.01*

Structure (SMILES): Cc1cc(C)cc(NC(=O)OC2/C=C/CCCCC2)c1 (stereo not drawn) [drawing 106]
rate contant k2 [3]: 0.15 M⁻¹ s⁻¹

Structure (SMILES): NCc1ccc(-c2nncnn2)cc1
Reactivity ratio (R = k2,TZ/k2,Ref) [2]: 0.77

Structure (SMILES): c1c[nH]c(-c2nnc(-c3ncc[nH]3)nn2)n1
Reactivity ratio (R = k2,TZ/k2,Ref) [2]: 1.2

Structure (SMILES): FC(F)(F)c1ccc(-c2nnc(-c3ccc(C(F)(F)F)cn3)nn2)nc1
Reactivity ratio (R = k2,TZ/k2,Ref) [1]: 5.3*

Structure (SMILES): c1ccc(-c2nnc(-c3ccccn3)nn2)nc1
Reactivity ratio (R = k2,TZ/k2,Ref) [2]: 1.17

Structure (SMILES): Nc1cccc(-c2nnc(-c3ccccc3)nn2)c1
Reactivity ratio (R = k2,TZ/k2,Ref) [1]: <0.01*

Structure (SMILES): O=C(NCc1ccccc1)OC1/C=C/CCCCC1 (stereo not drawn) [minor-32, (E)-cyclooct-2-en-1-yl benzylcarbamate]
release of benzylamine ([4]; with 3,6-Bis(2-aminophenyl)-1,2,4,5-tetrazine (9), DMSO-d6/D2O, 20° C., 24 hr): release of benzylamine
release of benzylamine ([4]; with 3,6-Bis(2-pyridinyl)-1,2,4,5-tetrazine (2), acetonitrile/water, 20° C., 24 hr): release of benzylamine
release of benzylamine ([4]; with 3,6-Bis(4-hydroxyphenyl)-1,2,4,5-tetrazine (11), acetonitrile/water, 20° C., 5 hr): release of benzylamine
release of benzylamine ([4]; with 3,6-Diphenyl-1,2,4,5-tetrazine, general procedure): release of benzylamine
release of benzylamine ([4]; with 6-H-3-(4-Aminomethylphenyl)-1,2,4,5-tetrazine, general procedure): release of benzylamine
release of benzylamine ([4]; with 6-Methyl-3-(4-butanamido-2-pyridinyl)-1,2,4,5-tetrazine, general procedure): release of benzylamine
release of benzylamine ([4]; with 6-Phenyl-3-(3-aminophenyl)-1,2,4,5-tetrazine, general procedure): release of benzylamine
release of benzylamine ([4]; with 6-Phenyl-3-(4-aminophenyl)-1,2,4,5-tetrazine, general procedure): release of benzylamine

Structure (SMILES): CCCNC(=O)c1ccc(-c2nnc(-c3ccccn3)nn2)nc1
Reactivity ratio (R = k2,TZ/k2,Ref) [2]: 1.76

IC50 ([5]; Homo sapiens, A-431, 72 h): 20 ± 2 nM
Structure (SMILES): COc1cccc2c1C(=O)c1c(O)c3c(c(O)c1C2=O)C[C@@](O)(C(=O)CO)C[C@@H]3O[C@H]1C[C@H](N)[C@H](O)[C@H](C)O1 [Dox, Doxorubicin, reference compound]

Structure (SMILES): c1c[nH]c(-c2nnc(-c3ccc[nH]3)nn2)c1
Reactivity ratio (R = k2,TZ/k2,Ref) [1]: <0.01*

Structure (SMILES): O=C(NCc1ccccc1)OC1/C=C/CCCCC1 (stereo not drawn) [drawing 104]
rate contant k2 [3]: 40 M⁻¹ s⁻¹
reactivity ratio (R = k2,TC0/k2,Ref) [6]: 0.067

Structure (SMILES): c1cncc(-c2nnc(-c3cccnc3)nn2)c1
Reactivity ratio (R = k2,TZ/k2,Ref) [2]: 0.19

Structure (SMILES): COc1cccc2c1C(=O)c1c(O)c3c(c(O)c1C2=O)C[C@@](O)(C(=O)CO)CC3OC1CC(NC(=O)OC2/C=C/CCCCC2)[C@H](O)C(C)O1 (stereo partly drawn)
half-life at 83 µM [7]: > 20 days

Structure (SMILES): COc1cccc2c1C(=O)c1c(O)c3c(c(O)c1C2=O)C[C@@](O)(C(=O)CO)C[C@@H]3O[C@H]1C[C@H](NC(=O)OC2/C=C/CCCCC2)[C@H](O)[C@H](C)O1 (stereo partly drawn) [minor-38, minor-(E)-cyclooct-2-en-1-yl doxorubicin carbamate]
release of doxorubicin (yield) ([8]; with tetrazine 7, c=25 μM, PBS, 20° C., 4 hr): 69%
release of doxorubicin at lower concentrations ([8]; with tetrazine 7, concentrations of 2.5 and 1.0 μM): Comparable results
release of doxorubicin (yield) ([8]; with tetrazine 9, acetonitrile/PBS, 20° C., 18 hr): 90%
IC50 ([5]; A431, 72 hr, + tetrazine 7 (10 μM), constant amount): 278 ± 22 nM
IC50 ([5]; A431, 72 hr, + tetrazine 7 (1.5 eq.), serial dilutions): 137 ± 12 nM
IC50 ([5]; A431 cell line, 72 hr, MTT, compound alone): 3020 ± 486 nM

Structure (SMILES): Nc1ccccc1-c1nnc(-c2ccccc2N)nn1
Reactivity ratio (R = k2,TZ/k2,Ref) [1]: <0.01*

IC50 ([5]; Homo sapiens, A-431, 72 h): > 100000 nM
Structure (SMILES): Cc1nnc(-c2ccccn2)nn1 [Tetrazine 7, 3-(2-pyridyl)-6-methyl-1,2,4,5-tetrazine]

Structure (SMILES): Cc1cc(C)cc(NC(=O)OC2/C=C/CCCCC2)c1 (stereo not drawn) [minor-33, (E)-cyclooct-2-en-1-yl (3,5-dimethylphenyl)carbamate]
release of 3,5-dimethylaniline ([4]; with 3,6-Bis(2-aminophenyl)-1,2,4,5-tetrazine (9), acetonitrile/PBS, 20° C.): release of 3,5-dimethylaniline
release of 3,5-dimethylaniline ([4]; with 3,6-Bis(4-hydroxyphenyl)-1,2,4,5-tetrazine (11), acetonitrile/PBS, 20° C.): release of 3,5-dimethylaniline
release of 3,5-dimethylaniline ([4]; with 3,6-Diphenyl-1,2,4,5-tetrazine, acetonitrile/PBS, 20° C.): release of 3,5-dimethylaniline
release of 3,5-dimethylaniline ([4]; with 3-(2-Pyridyl)-6-methyl-1,2,4,5-tetrazine (7), PBS, 20° C.): release of 3,5-dimethylaniline

Structure (SMILES): Oc1ccc(-c2nnc(-c3ccc(O)cc3)nn2)cc1
Reactivity ratio (R = k2,TZ/k2,Ref) [1]: <0.01*

Structure (SMILES): OC1CC/C=C/CCC1 (stereo not drawn)
rate contant k2 [3]: 577 M⁻¹ s⁻¹
reactivity ratio (R = k2,TC0/k2,Ref) [6]: 1

Structure (SMILES): Nc1ccc(-c2nnc(-c3ccccc3)nn2)cc1
Reactivity ratio (R = k2,TZ/k2,Ref) [1]: <0.01*

Structure (SMILES): COc1cccc2c1C(=O)c1c(O)c3c(c(O)c1C2=O)C[C@@](O)(C(=O)CO)C[C@@H]3O[C@H]1C[C@H](NC(=O)OC2/C=C/CCCCC2)[C@H](O)[C@H](C)O1 (stereo partly drawn) [major-38, major-(E)-cyclooct-2-en-1-yl doxorubicin carbamate]
conversion of the DA-reaction [8, 10]: 40%
release of doxorubicin (yield) [8, 10]: 20%

Structure (SMILES): c1cc(-c2nnc(-c3ccncc3)nn2)ccn1
Reactivity ratio (R = k2,TZ/k2,Ref) [2]: 0.83

Structure (SMILES): CCCC(=O)Nc1ccc(-c2nnc(-c3ncccn3)nn2)nc1
Reactivity ratio (R = k2,TZ/k2,Ref) [2]: 2.7

Structure (SMILES): Cc1nnc(-c2ccccn2)nn1 [drawing 93]
Reactivity ratio (R = k2,TZ/k2,Ref) [2]: 0.25

Structure (SMILES): CC(=O)Nc1ccc(-c2nnc(-c3ccccn3)nn2)nc1
Reactivity ratio (R = k2,TZ/k2,Ref) [2]: 1

Structure (SMILES): Cc1cc(C)cc(NC(=O)OC2/C=C/CCCCC2)c1 (stereo not drawn) [drawing 105]
rate contant k2 [3]: 25.7 M⁻¹ s⁻¹

Structure (SMILES): CCCC(=O)Nc1ccc(-c2nnc(-c3ccc(C(F)(F)F)cn3)nn2)nc1
Reactivity ratio (R = k2,TZ/k2,Ref) [1]: 1.84*

Structure (SMILES): CCCC(=O)Nc1ccc(-c2nncnn2)nc1
Reactivity ratio (R = k2,TZ/k2,Ref) [2]: 2.8

Structure (SMILES): O=C(NCc1ccccc1)OC1/C=C/CCCCC1 (stereo not drawn) [drawing 103]
rate contant k2 [3]: 0.26 M⁻¹ s⁻¹

Structure (SMILES): c1cc(-c2nnc(-c3ccsc3)nn2)cs1
Reactivity ratio (R = k2,TZ/k2,Ref) [1]: <0.01*

Structure (SMILES): CCCC(=O)Nc1ccc(-c2nnc(C)nn2)nc1
Reactivity ratio (R = k2,TZ/k2,Ref) [2]: 0.18

Structure (SMILES): Fc1ccc(-c2nnc(-c3ccc(F)cn3)nn2)nc1
Reactivity ratio (R = k2,TZ/k2,Ref) [2]: 1.07

Structure (SMILES): Nc1ccc(-c2nnc(-c3ccccn3)nn2)nc1
Reactivity ratio (R = k2,TZ/k2,Ref) [2]: 0.4

half-life at 83 µM [9]: 25.2 min
Structure (SMILES): CCCCNC(=O)c1ccc(-c2nnc(-c3ncccn3)nn2)nc1
Reactivity ratio (R = k2,TZ/k2,Ref) [2]: 2

Structure (SMILES): CCCC(=O)Nc1ccc(-c2nnc(-c3ccc(F)cn3)nn2)nc1
Reactivity ratio (R = k2,TZ/k2,Ref) [2]: 0.95

Structure (SMILES): c1ccc(-c2nncnn2)nc1
Reactivity ratio (R = k2,TZ/k2,Ref) [2]: 3.06

Structure (SMILES): c1csc(-c2nnc(-c3cccs3)nn2)c1
Reactivity ratio (R = k2,TZ/k2,Ref) [1]: <0.01*

Structure (SMILES): c1cnc(-c2nnc(-c3cnccn3)nn2)cn1
Reactivity ratio (R = k2,TZ/k2,Ref) [2]: 1.5

Source: US10967069B2, “Bio-orthogonal drug activation” (TAGWORKS PHARMACEUTICALS B.V., priority 2011, dated 2021)
